The source of these data is ChEMBL document CHEMBL4321809, “Structure-Reactivity Relationships on Substrates and Inhibitors of the Lysine Deacylase Sirtuin 2 from Schistosoma mansoni (SmSirt2)” (J Med Chem, 2019).

pIC50: −log10 of the molar value. The source made the active and inactive calls. The rule behind the calls is not given here.

Test [1] concerns the target T1, NAD-dependent protein deacetylase (Schistosoma mansoni) (UniProt T1VXA1).
T1 sequence (whole entry): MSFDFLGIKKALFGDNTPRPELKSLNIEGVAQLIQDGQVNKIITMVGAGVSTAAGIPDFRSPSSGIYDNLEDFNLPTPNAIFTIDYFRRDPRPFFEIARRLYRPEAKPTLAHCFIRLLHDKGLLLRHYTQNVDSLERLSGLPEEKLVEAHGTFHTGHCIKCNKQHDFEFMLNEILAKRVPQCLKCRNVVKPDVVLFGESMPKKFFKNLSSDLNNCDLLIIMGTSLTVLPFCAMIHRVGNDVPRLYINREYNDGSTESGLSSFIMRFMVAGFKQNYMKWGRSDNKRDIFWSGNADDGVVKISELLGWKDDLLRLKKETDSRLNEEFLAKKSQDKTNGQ
Briefly: Inhibition of recombinant Schistosoma mansoni sirtuin 2 (21 to 322 residues) expressed in Escherichia coli BL21(DE3) cells assessed as inhibition of substrate deacetylation at 20 uM using ZMAL as substrate relative to control.

Test [2] deals with T2, NAD-dependent protein deacetylase sirtuin-2 (Homo sapiens, UniProt Q8IXJ6).
T2 sequence (Q8IXJ6 whole entry): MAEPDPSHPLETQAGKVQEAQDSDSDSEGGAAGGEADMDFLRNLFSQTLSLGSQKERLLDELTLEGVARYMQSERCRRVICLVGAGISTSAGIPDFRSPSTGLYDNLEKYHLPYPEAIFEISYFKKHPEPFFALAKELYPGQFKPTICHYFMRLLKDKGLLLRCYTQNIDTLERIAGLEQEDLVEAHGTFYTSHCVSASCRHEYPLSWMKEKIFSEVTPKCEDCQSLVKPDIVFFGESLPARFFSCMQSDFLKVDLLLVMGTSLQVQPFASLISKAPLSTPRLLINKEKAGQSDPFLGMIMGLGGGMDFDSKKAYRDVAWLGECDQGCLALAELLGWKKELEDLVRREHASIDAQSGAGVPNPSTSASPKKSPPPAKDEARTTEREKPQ
The experiment in a line: Inhibition of human sirtuin 2 assessed as inhibition of substrate deacetylation using ZMAL as substrate.

Test [3] concerns the target T2, NAD-dependent protein deacetylase sirtuin-2. Briefly: Inhibition of human sirutin 2 assessed as inhibition of susbtrate demyristoylation at 20 uM using (Z)-(Myr)-Lys-AMC as substrate relative to control.
For test [4], the target named is T1, NAD-dependent protein deacetylase (Schistosoma mansoni). Briefly: Inhibition of recombinant Schistosoma mansoni sirtuin 2 (21 to 322 residues) expressed in Escherichia coli BL21(DE3) cells assessed as inhibition of substrate demyristoylation at 20 uM using (Z)-(Myr)-Lys-AMC as substrate relative to control.
Test [5] has the same target. The experiment in a line: Inhibition of recombinant Schistosoma mansoni sirtuin 2 (21 to 322 residues) expressed in Escherichia coli BL21(DE3) cells in presence of ZMAL.
For test [6], the target named is T3, NAD-dependent protein deacetylase sirtuin-1 (Homo sapiens, UniProt Q96EB6).
T3 sequence (Q96EB6 whole entry): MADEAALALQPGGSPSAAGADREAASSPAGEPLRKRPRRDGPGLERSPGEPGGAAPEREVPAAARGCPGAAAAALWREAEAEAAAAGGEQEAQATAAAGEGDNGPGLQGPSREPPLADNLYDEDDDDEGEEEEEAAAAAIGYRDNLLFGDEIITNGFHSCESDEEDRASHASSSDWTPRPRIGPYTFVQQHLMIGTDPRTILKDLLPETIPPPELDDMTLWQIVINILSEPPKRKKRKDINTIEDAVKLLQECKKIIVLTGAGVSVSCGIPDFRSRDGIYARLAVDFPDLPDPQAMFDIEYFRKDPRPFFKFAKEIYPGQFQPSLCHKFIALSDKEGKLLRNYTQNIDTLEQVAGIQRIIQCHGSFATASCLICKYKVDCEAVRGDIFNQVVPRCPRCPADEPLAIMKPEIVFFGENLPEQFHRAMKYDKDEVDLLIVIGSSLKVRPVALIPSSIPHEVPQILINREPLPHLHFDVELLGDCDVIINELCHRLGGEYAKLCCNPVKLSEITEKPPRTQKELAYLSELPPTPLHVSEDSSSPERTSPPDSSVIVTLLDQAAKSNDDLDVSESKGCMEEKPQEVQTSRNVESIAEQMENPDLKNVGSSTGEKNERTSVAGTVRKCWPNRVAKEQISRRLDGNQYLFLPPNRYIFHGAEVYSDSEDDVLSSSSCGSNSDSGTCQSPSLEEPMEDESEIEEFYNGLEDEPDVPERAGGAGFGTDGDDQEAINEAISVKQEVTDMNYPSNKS
The experiment in a line: Inhibition of human sirtuin 1 at 500 uM relative to control.

The target in test [7] is T1, NAD-dependent protein deacetylase (Schistosoma mansoni). The experiment in a line: Inhibition of recombinant Schistosoma mansoni sirtuin 2 (21 to 322 residues) expressed in Escherichia coli BL21(DE3) cells in presence of (Z)-(Pal)Lys-AMC.
The target is the same in test [8]. The experiment in a line: Inhibition of recombinant Schistosoma mansoni sirtuin 2 (21 to 322 residues) expressed in Escherichia coli BL21(DE3) cells in presence of (Z)-(Myr)Lys-AMC.
For test [9] the target is unchanged. Briefly: Inhibition of recombinant Schistosoma mansoni sirtuin 2 (21 to 322 residues) expressed in Escherichia coli BL21(DE3) cells in presence of (Z)-(Dec)Lys-AMC.
Test [10] has the same target. The experiment in a line: Inhibition of recombinant Schistosoma mansoni sirtuin 2 (21 to 322 residues) expressed in Escherichia coli BL21(DE3) cells in presence of (Z)-(But)Lys-AMC.
For test [11] the target is unchanged. Briefly: Inhibition of recombinant Schistosoma mansoni sirtuin 2 (21 to 322 residues) expressed in Escherichia coli BL21(DE3) cells in presence of (Z)-(Hex)Lys-AMC.
Test [12] shares this target. The experiment in a line: Inhibition of recombinant Schistosoma mansoni sirtuin 2 (21 to 322 residues) expressed in Escherichia coli BL21(DE3) cells in presence of (Z)-(Oct)Lys-AMC.
The target is the same in test [13]. The experiment in a line: Inhibition of recombinant Schistosoma mansoni sirtuin 2 (21 to 322 residues) expressed in Escherichia coli BL21(DE3) cells in presence of (Z)-(Lau)Lys-AMC.
The target in test [14] is T4, NAD-dependent protein deacetylase (Schistosoma mansoni, UniProt T1VXA1).
T4 sequence (T1VXA1 whole entry): T1 sequence (whole entry)
The experiment in a line: Inhibition of recombinant Schistosoma mansoni sirtuin 2 (21 to 322 residues) expressed in Escherichia coli BL21(DE3) cells assessed as inhibition of substrate deacetylation using ZMAL as substrate.

Test [15] has as its target T4, NAD-dependent protein deacetylase. Briefly: Inhibition of recombinant Schistosoma mansoni sirtuin 2 (21 to 322 residues) expressed in Escherichia coli BL21(DE3) cells assessed as inhibition of substrate demyristoylation using (Z)-(Myr)-Lys-AMC as substrate.

`O=C(NCc1cccnc1)c1ccc2c(c1)C1C3CCC(C3)C1C(c1ccccc1)N2` (stereo unspecified): the inhibition in [1] and in test [4] was less than 15% throughout. Besides, the pIC50 (commonly the IC50 on a negative log10 scale, so that one unit is a factor of ten) in test [2] is 5.60. The inhibition (commonly the change of the read-out against control, counted positive when it falls) at 20 µM in test [3] worked out at 42.8%.
Turning to `NC(=O)c1cccnc1` [NIACINAMIDE], the inhibition entry in test [5], in [10], in test [11] and in [12] was “Active” in each case. Further, the inhibition at 20 µM in [3] amounted to 8.7%. The compound also yielded an inhibition at 500 µM in [6] of 100%. For the same compound, the inhibition result in test [7], in [8], in test [9] and in [13] was “inactive” each time. Besides, the pIC50 in [14] is 4.64; in test [15], 3.38.
